Publication PMC11887051, “Discovery of ONO-2920632 (VU6011887): A Highly Selective and CNS Penetrant TREK-2 (TWIK-Related K+ Channel 2) Preferring Activator In Vivo Tool Compound” (ACS Chemical Neuroscience, 2025)
Where “and” joins values, the source holds several entries; their conditions need not be identical. Identical values can stand only once. Entries after “also recorded” stand apart in the source; their conditions may differ. Like-named read-outs stand apart in the source and are kept apart here. Values belong to the compound of their own block, whether it stands above or below them.

How the values were obtained:
[1] = rat plasma protein binding (equilibrium dialysis); format: in vitro ADME; conditions: pH 7.4, read-out: rat plasma fu
Method: (§1) In vitro Plasma protein binding and Brain homogenate binding: Determination of fraction unbound (f u) in plasma was conducted in vitro via equilibrium dialysis using HTDialysis (HTD) membrane plates. The top half of the plate was filled with 100 uL of Dubelco’s Phosphate Buffered Saline, pH 7.4 (DPBS). Compounds were diluted into plasma from each species (5 µM final concentration), which was aliquoted in triplicate to the ‘bottom half’ of the prepared HTD plate wells. The HTD plate was sealed and incubated for 6 hours at 37 °C. Following incubation, each well (both top and bottom halves) were transferred (20 µL) to the corresponding wells of a 96-shallow-well (V-bottom) plate. The daughter plates were then matrix-matched (DPBS side wells received equal volume of plasma, and plasma side wells received equal volume of DPBS), and extraction solution (120 µL; acetonitrile containing 50 nM carbamazepine as IS) was added to all wells of both daughter plates to precipitate protein and extract test article. The plates were then sealed and centrifuged (3500 rcf) for 10 minutes at ambient temperature. Supernatant (60 µL) from each well of the daughter plates was then transferred to the corresponding wells of new daughter plates (96-shallow-well, V bottom) containing water (Milli-Q, 60 µL/well), and the plates were sealed in preparation for LC-MS/MS analysis (see LC-MS/MS analysis method below).
(§2) The unbound fraction (f u) was calculated following the equation below, and mean values for each species were calculated from 3 replicates. […]
(§3) Fraction unbound for both plasma and brain samples was determined using Equation 4.
(§4) Equation 4 Determination of fraction unbound in plasma. […]

[2] = rat PK study; format: in vivo; conditions: plasma; for clearance: read-out: rat CLp; for Vd: read-out: rat Vss; for half-life: read-out: rat t1/2 (converted)
[3] = biological target: T1, TREK-2 (Homo sapiens, UniProt P57789); experiment: manual patch clamp (MPC) assay, TREK-2, species not stated; format: cell-based
T1 sequence (P57789 1-538): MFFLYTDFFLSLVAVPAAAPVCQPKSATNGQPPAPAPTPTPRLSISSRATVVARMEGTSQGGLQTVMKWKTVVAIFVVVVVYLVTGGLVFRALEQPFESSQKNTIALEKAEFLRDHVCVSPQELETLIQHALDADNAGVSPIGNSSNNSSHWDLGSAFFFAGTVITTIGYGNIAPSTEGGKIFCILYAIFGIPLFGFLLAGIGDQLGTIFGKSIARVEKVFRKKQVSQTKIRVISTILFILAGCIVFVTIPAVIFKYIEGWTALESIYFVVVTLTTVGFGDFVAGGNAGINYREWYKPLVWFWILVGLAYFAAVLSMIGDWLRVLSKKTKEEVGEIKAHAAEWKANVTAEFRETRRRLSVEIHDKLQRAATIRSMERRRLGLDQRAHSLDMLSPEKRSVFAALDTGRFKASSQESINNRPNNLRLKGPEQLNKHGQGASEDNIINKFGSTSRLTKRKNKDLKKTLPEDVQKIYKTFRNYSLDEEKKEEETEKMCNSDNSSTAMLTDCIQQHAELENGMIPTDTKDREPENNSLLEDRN

[4] = mouse plasma protein binding; format: in vitro ADME; conditions: pH 7.4, read-out: mouse plasma fu
Method: as §1, §2, §3, §4

[5] = biological target: T2, mouse TREK-2 (Mus musculus, UniProt Q8BUW1); experiment: mouse TREK-2 MPC assay; format: cell-based; conditions: for EC50 / Emax: mouse, manual patch clamp; for TREK-2 preference (mouse MPC): TREK-2 over TREK-1, mouse MPC
T2 sequence (Q8BUW1 1-535): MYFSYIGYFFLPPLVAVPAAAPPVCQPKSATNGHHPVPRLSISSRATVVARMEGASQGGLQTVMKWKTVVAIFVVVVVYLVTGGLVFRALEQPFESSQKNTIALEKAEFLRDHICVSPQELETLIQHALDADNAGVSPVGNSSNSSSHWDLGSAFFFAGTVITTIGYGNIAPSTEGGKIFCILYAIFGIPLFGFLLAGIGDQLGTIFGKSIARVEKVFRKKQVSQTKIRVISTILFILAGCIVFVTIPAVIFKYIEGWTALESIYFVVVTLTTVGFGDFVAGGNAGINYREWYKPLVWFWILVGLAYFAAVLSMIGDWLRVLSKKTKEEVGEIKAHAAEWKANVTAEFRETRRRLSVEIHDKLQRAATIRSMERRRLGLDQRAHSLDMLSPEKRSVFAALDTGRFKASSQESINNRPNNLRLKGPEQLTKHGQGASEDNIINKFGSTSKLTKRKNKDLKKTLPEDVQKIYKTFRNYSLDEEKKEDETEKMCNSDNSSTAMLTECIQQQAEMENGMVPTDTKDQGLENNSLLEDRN

[6] = system: TASK-3; experiment: human 86Rb flux K2P selectivity panel; format: cell-based; conditions: 86Rb flux K2P panel
[7] = biological target: T3, TRESK (Homo sapiens, UniProt Q7Z418); experiment: human 86Rb flux K2P selectivity panel; format: cell-based; conditions: 86Rb flux K2P panel; for activity at TRESK: data is not shown
T3 sequence (Q7Z418 1-384): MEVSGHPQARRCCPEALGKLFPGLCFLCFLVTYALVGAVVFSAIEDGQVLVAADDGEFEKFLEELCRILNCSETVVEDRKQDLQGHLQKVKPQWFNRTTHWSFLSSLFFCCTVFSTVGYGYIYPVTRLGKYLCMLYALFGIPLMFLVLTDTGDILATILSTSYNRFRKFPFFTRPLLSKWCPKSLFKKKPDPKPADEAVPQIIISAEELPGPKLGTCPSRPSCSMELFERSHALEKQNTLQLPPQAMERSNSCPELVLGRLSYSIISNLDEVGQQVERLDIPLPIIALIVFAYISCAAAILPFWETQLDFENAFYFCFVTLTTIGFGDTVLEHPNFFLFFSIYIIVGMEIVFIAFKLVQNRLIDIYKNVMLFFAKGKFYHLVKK

[8] = biological target: Dopamine D1 (Homo sapiens, UniProt P21728); experiment: Eurofins Lead Profiling radioligand binding; conditions: title: 30 μM
[9] = system: TASK-1; experiment: human 86Rb flux K2P selectivity panel; format: cell-based; conditions: 86Rb flux K2P panel
[10] = system: TRAAK; experiment: human 86Rb flux K2P selectivity panel; format: cell-based; conditions: 86Rb flux K2P panel
[11] = biological target: Dopamine D2S (Homo sapiens, UniProt P14416); experiment: Eurofins Lead Profiling radioligand binding; conditions: title: 30 μM
[12] = system: TASK-2; experiment: human 86Rb flux K2P selectivity panel; format: cell-based; conditions: 86Rb flux K2P panel
[13] = system: TWIK-2; experiment: human 86Rb flux K2P selectivity panel; format: cell-based; conditions: 86Rb flux K2P panel
[14] = Sprague-Dawley, intravenous, rat cassette PK study

Chain of Dopamine D2S (P14416 1-414 isoform P14416-2): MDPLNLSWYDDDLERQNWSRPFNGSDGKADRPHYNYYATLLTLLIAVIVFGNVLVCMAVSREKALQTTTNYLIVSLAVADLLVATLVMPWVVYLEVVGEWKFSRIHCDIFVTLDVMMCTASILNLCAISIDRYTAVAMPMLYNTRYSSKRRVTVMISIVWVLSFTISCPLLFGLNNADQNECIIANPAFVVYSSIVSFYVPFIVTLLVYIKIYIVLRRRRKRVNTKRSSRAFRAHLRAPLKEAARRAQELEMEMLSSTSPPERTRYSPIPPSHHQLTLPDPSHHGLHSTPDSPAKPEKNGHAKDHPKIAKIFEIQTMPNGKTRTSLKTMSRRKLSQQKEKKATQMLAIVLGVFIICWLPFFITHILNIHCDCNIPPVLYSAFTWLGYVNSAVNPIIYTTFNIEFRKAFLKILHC
Chain of Dopamine D1 (P21728 whole entry): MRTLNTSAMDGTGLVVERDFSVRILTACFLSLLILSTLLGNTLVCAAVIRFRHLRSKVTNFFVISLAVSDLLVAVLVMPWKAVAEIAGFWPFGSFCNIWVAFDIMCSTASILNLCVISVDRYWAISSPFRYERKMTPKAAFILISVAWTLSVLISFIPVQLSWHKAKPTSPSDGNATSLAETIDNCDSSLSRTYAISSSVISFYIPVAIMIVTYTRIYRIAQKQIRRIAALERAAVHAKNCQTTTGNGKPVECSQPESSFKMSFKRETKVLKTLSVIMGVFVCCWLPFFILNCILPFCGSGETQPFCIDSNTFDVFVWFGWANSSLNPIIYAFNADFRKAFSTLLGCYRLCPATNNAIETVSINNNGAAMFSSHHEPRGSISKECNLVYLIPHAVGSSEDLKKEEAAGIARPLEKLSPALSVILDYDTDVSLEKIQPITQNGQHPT

Structure (SMILES): O=C(NCc1ccc(OC(F)(F)F)cc1F)c1ccc2ncnn2c1 [Compound 19b]
selectivity against TASK-3 over TREK-2 [6]: > 150 fold
selectivity against TRESK over TREK-2 [7]: 31 fold
activity at TRESK [7]: micromolar inhibitor activity
fraction unbound at 6 h, 5 µM [4]: 0.24
fraction unbound at 6 h, 5 µM [1]: 0.075
inhibition [8]: 22%
selectivity against TASK-1 over TREK-2 [9]: > 150 fold
selectivity against TRAAK over TREK-2 [10]: > 150 fold
inhibition at 10 µM [11]: 6%
selectivity against TASK-2 over TREK-2 [12]: > 150 fold
selectivity against TWIK-2 over TREK-2 [13]: > 150 fold
TREK-2 preference (mouse MPC) [5]: 4.7 fold
EC50 [5]: 570 nM
Emax [5]: 105%

Structure (SMILES): O=C(NCc1ccc(OC(F)(F)F)cc1Cl)c1ccc2nncn2c1 [Compound 20]
selectivity against TASK-3 over TREK-1/2 [6]: > 91 fold and > 85 fold
activity at TRESK [7]: micromolar inhibitor activity; also recorded: micromolar inhibitory activity
selectivity against TASK-1 over TREK-1/2 [9]: > 91 fold and > 85 fold
selectivity against TRAAK over TREK-1 [10]: 85 fold and > 85 fold
selectivity against TASK-2 over TREK-1/2 [12]: > 91 fold and > 85 fold
selectivity against TWIK-2 over TREK-1/2 [13]: > 91 fold and > 85 fold

Continued, values first:

fraction unbound at 6 h, 5 µM [1]: 0.027
clearance ([2]; rat PK profile): 3.5 mL/min/kg
Vd ([2]; rat PK profile): 0.787 L/kg
half-life ([2]; rat PK profile): 3 h
selectivity for TREK-2 in MPC assay ([3]; TREK-2 over TREK-1, manual patch clamp): ~8 fold
EC50 ([3]; manual patch clamp): 950 nM
Emax ([3]; manual patch clamp): 126%
Structure (SMILES): CS(=O)(=O)Nc1ccc(C(=O)NCc2ccc(Cl)cc2Cl)cc1 [Compound 13]

fraction unbound at 6 h, 5 µM [4]: 0.022
clearance [2, 14]: 20.5 mL/min/kg
Vd [2, 14]: 1.5 L/kg
half-life [2, 14]: 1.1 h
EC50 [5]: 610 nM
Emax [5]: 97%
Structure (SMILES): O=C(NCc1ccc(Br)cc1Cl)c1ccc(-c2ncn[nH]2)cc1 [Compound 14a]

fraction unbound at 6 h, 5 µM [4]: 0.1
fraction unbound at 6 h, 5 µM [1]: 0.075
TREK-2 preference (mouse MPC) [5]: 33 fold
EC50 [5]: 150 nM
Emax [5]: 105%
Structure (SMILES): Cc1cc(OC(F)(F)F)ccc1CNC(=O)c1ccc2ncnn2c1 [Compound 19a]
